This note sets out measurements from patent publication US8084049B2, “Complexes of fatty acid esters of polyhydroxyalkanes and pyridine carboxy derivatives” (priority 2002, dated 2011).

Experiment [1] concerns sub-chronic TPA induced mouse ear inflammation. As to the kind of experiment: sub-chronic TPA (repeated application) mouse ear inflammation model (Example 112). The class given is in vivo, female BALB/ca mice. Here is the method:
Investigation of two complexes according to the invention in a recognized pharmacodynamic model of sub-chronic inflammation.
The objective of this study was to assess the therapeutic value of the complexes of the invention in a very demanding pharmacodynamic model of dermal inflammation. Repeated application of TPA to the ears of the mice within 48 hours yields an inflammatory lesion with infiltration of leukocytes and persistent swelling. The reapplication of TPA ([…]) after 48 hours produces an inflammation and ear oedema, which is more dramatic due to the involvement and activation of a vast number of inflammatory cells. Therefore the model is suitable for drug evaluation in relation to more aggravated or chronic inflammatory conditions. The test substance for evaluation is co-applied with the second TPA application. […]
Mean weights and standard deviations were calculated. Relative ear oedema was assessed as the weight difference between right and left ear of each mouse expressed as percent of the left ear. Percent inhibition of the relative ear oedema compared with the vehicle treated groups was calculated for the test substance and positive control treated group. […]

Experiment [2] deals with 12-O-tetradecanoylphorbol-13-acetate (TPA) induced mouse ear inflammation. As to the kind of experiment: acute TPA induced mouse ear inflammation model (Example 111). It is filed as in vivo, female BALB/ca mice. To be noted: vs vehicle.
Excerpt: This was done by comparing a high dose, corresponding to Emax (the maximal obtainable effect representing the plateau of the dose-response curve) with the individual effects of the molar amount present of each component of the complex. If the effect of the complex is higher than the sum of the components the effect is synergistic. […] The positive control used in this study was betamethasone 17-valerate applied as a commercial preparation with maximum human dose (Celeston® Cutaneous Solution 0.1%, Shering-Plough).
The test substances were administered 20 minutes before and 20 minutes after application of TPA to the ear.
All groups were treated with 20 μl TPA solution 400 μg/ml in acetone, on the right ear.
Three hours after the TPA application the mice were sacrificed, the ears cut from the tip with a punch biopsy knife (8 mm diameter) and weighed.
Differences in relative ear oedema between the vehicle treated group and the other groups were tested for significance employing a non-parametric statistical method of analysis, the Mann-Whitney U test. The required level of significance was p<0.05.
The next experiment concerns Microsporum canis. As to the kind of experiment: antimicrobial MIC test (Example 113). It is filed as cell-based. The note with it: 1 to 4 days culture; initial test concentration 3 mM in 1% DMSO and dilutions. Here is the method:
(§1) Test substance or vehicle is added to test wells containing the selected microorganisms (1×10^4 to 5×10^5 CFU/ml)in cultures grown under controlled conditions. The final innoculum concentration is determined by reference to a standard optical density curve and adjusted as required. After 1 to 4 days, growth of the culture is examined and scored positive (+) for inhibition of growth or turbidity, or negative (−) for no effect upon growth or turbidity. An initial test concentration of 3 mM in 1% DMSO is used and dilutions are tested to establish the minimal inhibitory concentration (MIC).

The next experiment has as its system Streptococcus faecalis. As to the kind of experiment: antimicrobial MIC test (Example 113). The class given is cell-based. The note with it: 1 to 4 days culture; initial test concentration 3 mM in 1% DMSO and dilutions. Here is the method: as §1
For the next experiment, the system named is Epidermophyton floccosum. As to the kind of experiment: antimicrobial MIC test (Example 113). The note with it: 1 to 4 days culture; initial test concentration 3 mM in 1% DMSO and dilutions. The class given is cell-based. Here is the method:
as §1

For a further experiment, the system named is Candida albicans. As to the kind of experiment: antimicrobial MIC test (Example 113). The class given is cell-based. To be noted: 1 to 4 days culture; initial test concentration 3 mM in 1% DMSO and dilutions. Here is the method:
as §1

Another experiment deals with Trichophyton rubrum. As to the kind of experiment: antimicrobial MIC test (Example 113). The class given is cell-based. The note with it: 1 to 4 days culture; initial test concentration 3 mM in 1% DMSO and dilutions. Here is the method: as §1

“Also recorded” adds a separate entry of the source.

For the molecule `C[C@]12CCC(=O)C=C1CC[C@@H]1[C@@H]2[C@@H](O)C[C@@]2(C)[C@H]1CC[C@]2(O)C(=O)CO` [hydrocortisone], the “effect in the sub-chronic TPA model” value in experiment [1] (observation of the inventor on mild steroids) is “no effect; also recorded: no measurable effects”.

Regarding `CCCCCCCC(=O)OCC(O)CO` (racemic) [Rac-1-glyceryl-monocaprylate], the “% Inhibition of relative ear oedema” value in experiment [2] (4.58 μmol/ear, given 20 min before and 20 min after TPA, ears weighed 3 h after TPA) amounted to 22%. The MIC entry with Microsporum canis, with Streptococcus faecalis, in the experiment with Epidermophyton floccosum, with Candida albicans and with Trichophyton rubrum was “Not active at tested” throughout.

As to `CCCCC(=O)O[C@]1(C(=O)CO)[C@@H](C)C[C@H]2[C@@H]3CCC4=CC(=O)C=C[C@]4(C)[C@@]3(F)[C@@H](O)C[C@@]21C` [Betamethasone 17-valerate], the “% Inhibition of relative ear oedema” value is reported as 66% in experiment [2] (0.02 mg/ear (Celeston Cutaneous Solution 0.1%), 20 min before and after TPA, 3 h after TPA); 31% in experiment [1] (0.02 mg/ear, 20 min before and after TPA re-application at 48 h, 3 h after TPA, vs vehicle).

`NC(=O)c1cccnc1` [Niacinamide]: the “% Inhibition of relative ear oedema” value in experiment [2] (64.1 μmol/ear, given 20 min before and 20 min after TPA, ears weighed 3 h after TPA) is given as 18%.
